{"source": "patent US20220305028A1", "about": "“METHOD FOR PREPARING A LIPOSOMAL COMPOSITION COMPRISING LATANOPROST, AND THE PHARMACOLOGICALLY ACTIVE LIPOSOMAL COMPOSITION FOR OPHTHALMOTHERAPY PREPARED BY THIS METHOD” (CONSORTIUM \"UKRINDUSTRY\", priority 2021, published 2022)", "origin": "cited, not measured here", "conditions": "aqueous ophthalmic drops"}
{"smiles": "CC(C)OC(=O)CCC/C=C\\C[C@@H]1[C@@H](CC[C@@H](O)CCc2ccccc2)[C@H](O)C[C@@H]1O", "note": "[latanoprost, Latanoprost]", "values": [{"measurement": "penetration of the latanoprost from the drops through a corneal epithelium", "result": "not more than 5 % of the administered amount"}]}
